Measurements reported in patent publication US4113850A, “Composition for the diagnostic visualization of neoplastic tissues” (Solco Basel AG, priority 1974, dated 1978).
Where “and” joins values, the source holds several entries; their conditions need not be identical. Equal entries are not always repeated. Where two headings read alike, the source gives them in different places.

Legend:
[1] = test system: brain tumor; details: cited from earlier work
[2] = cited from earlier work; for Ray dose for the person examined: radiopharmaceuticals used up to now
[3] = test system: neoplastic tissues (tumors and metastases); details: radiopharmaceuticals used up to now; cited from earlier work
[4] = test system: brain tumor; details: literature sources 1-2 of Table 2, cited from earlier work
[5] = in vivo, cited from earlier work
[6] = Stability of the complexes; assay type: physicochemical; details: in solution

COC([CH2][197Hg+])CNC(N)=O.[Cl-] (stereo not drawn) [197Hg-Chlormerodrin, ^197 Hg-chlormerodrin]
Human external tumor brain quotient (in vivo) ([1]; literature sources 1-6 of Table 1): 1.2 - 8.7 : 1 and 1.2 - 3.1 : 1 | Ray dose of the critical organs: Kidney ([2]; Kidney, hitherto used substances): 4370 - 19400 mrad/mCurie | Ray dose for the person examined [2]: high ray dose | Tumor affinity [3]: low and uncertain tumor affinity

[O]=[99Tc](=[O])(=[O])[O-] [Example 99mTcO4, ^99m Tc-pertechnetate]
Human internal tumor brain quotient (after autopsy or on an operation preparation) [4]: 1.8 - 5.3 : 1 | Human internal tumor brain quotient (after autopsy or on an operation preparation) ([4]; listed as 99mTcO): 0 - 4.3 : 1 | Human external tumor brain quotient (in vivo) ([1]; literature sources 1-6 of Table 1, listed as 99mTcO.sbsb.4): 1.7 : 1 and 1.3 : 1 and 1.2 - 2.5 : 1 | Ray dose of the critical organs: Blood ([2]; Blood, hitherto used substances): 17 - 47 mrad/mCurie | Ray dose of the critical organs: Colon ([2]; Colon, hitherto used substances): 150 - 290 mrad/mCurie | Ray dose of the critical organs: Stomach ([2]; Stomach, hitherto used substances): 40 - 320 mrad/mCurie | Ray dose of the critical organs: Thyroid ([2]; Thyroid, hitherto used substances): 100 - 270 mrad/mCurie | Concentration in organs ([5]; listed as 99m Tc-pertechnetate): particularly high concentrations occur in the thyroid but also in the plexus chorioideus (brain), in the salivary glands and in the gastric mucosa | Concentration in organs ([5]; listed as pertechnetate): concentrates above all in the thyroid

O=C([O-])CC(O)(CC(=O)[O-])C(=O)[O-].[67Ga+3] [^67 Gallium citrate]
Ray dose for the person examined [2]: high ray dose | Tumor affinity [3]: low and uncertain tumor affinity

O=[75Se]([O-])[O-].[Na+].[Na+] [^75 Se-sodium selenite]
Ray dose for the person examined [2]: high ray dose | Tumor affinity [3]: low and uncertain tumor affinity

COC(CNC(N)=O)[CH2][203Hg][Cl] (stereo not drawn) [^203 Hg-chlormerodrin]
Ray dose for the person examined [2]: high ray dose | Tumor affinity [3]: low and uncertain tumor affinity

^111 indium-citrate complex [Example 7]
Stability of complex [6]: stable

tin-technetium-isocitrate complex [Example 1]
Stability of complex [6]: stable
